Tests used:
[1] = test system: Plasmopara viticola; assay: Plasmopara viticola (downy mildew of grapevine), grapevine leaf disk assay, preventive; assay type: in vivo; settings: foliar, 168 h, 200 ppm, grapevine leaf disks, assessed seven days after inoculation, read-out: control of fungal infection, Plasmopara viticola
[2] = test system: Phytophthora infestans; assay: whole plant or invertebrate; assay type: in vivo; settings: in Solanum lycopersicum, foliar, 96 h, read-out: control of fungal infection, Phytophthora infestans
[3] = test system: Erysiphe graminis f.sp. tritici; assay: Erysiphe graminis f.sp. tritici (wheat powdery mildew), wheat leaf segment assay, preventive; assay type: in vivo; settings: Blumeria graminis, foliar, 96 h; 200 ppm; wheat leaf segments; assessed four days after inoculation; read-out: control of fungal infection, Etysiphe graminis f.sp. tritici
[4] = test system: Septoria nodorum; assay: Septoria nodorum (wheat glume blotch), wheat leaf segment assay, preventive; assay type: in vivo; settings: Parastagonospora nodorum, foliar, 96 h; 200 ppm; wheat leaf segments; assessed four days after inoculation; read-out: control of fungal infection, Septoria nodorum
[5] = test system: Fusarium culmorum; assay: Fusarium culmorum (root rot), liquid culture growth inhibition in nutrient broth; assay type: cell-based; settings: PDB broth, 24 C, inhibition of growth determined photometrically after 48 hrs, read-out: control of fungal infection, Fusarium culmorum
Protocol: Mycelia fragments or conidia suspensions of a fungus, prepared either freshly from liquid cultures of the fungus or from cryogenic storage, are directly mixed into nutrient broth. DMSO solutions of the test compound (max. 10 mg/ml) is diluted with 0.025% Tween20 by factor 50 and 10 μl of this solution is pipetted into a microtiter plate (96-well format) and the nutrient broth containing the fungal spores/mycelia fragments is then added to give an end concentration of the tested compound. The test plates are incubated at 24° C. and 96% rH in the dark. The inhibition of fungal growth is determined photometrically after 2-6 days and antifungal activity is calculated.
Fusarium culmorum (root rot): Conidia of the fungus from cryogenic storage were directly mixed into nutrient broth (PDB potato dextrose broth). After placing a (DMSO) solution of the test compounds into a microtiter plate (96-well format) the nutrient broth containing the fungal spores was added. The test plates were incubated at 24 C and the inhibition of growth was determined photometrically after 48 hrs.

[6] = test system: Pythium ultimum; assay: Pythium ultimum (Damping off), liquid culture growth inhibition in potato dextrose broth; assay type: cell-based; settings: Globisporangium ultimum; 20 ppm; potato dextrose broth, 24° C.; inhibition of growth determined photometrically after 48 hours; read-out: control of fungal infection, Pythium ultimum
[7] = test system: Septoria tritici; assay: Septoria tritici (leaf blotch), liquid culture growth inhibition in nutrient broth; assay type: cell-based; settings: Zymoseptoria tritici; 200 ppm; PDB broth, 24 C; inhibition of growth determined photometrically after 72 hrs; read-out: control of fungal infection, Septoria tritici
[8] = test system: Botrytis cinerea; assay: Botrytis cinerea (grey mould), bean leaf disk assay, preventive; assay type: in vivo; settings: foliar, 96 h, 200 ppm, bean leaf disks, assessed four days after inoculation, read-out: control of fungal infection, Botrytis cinerea

CSC(Oc1cc(C)c2ncc(Br)cc2c1)C(=O)NC(C)(C)C=NOc1ccccc1 (stereo not shown) [Compound No. 23, 2-(3-Bromo-8-methyl-quinolin-6-yloxy)-N-(1,1-dimethyl-2-phenoxyimino-ethyl)-2-methylsulfanyl-acetamide]
≥ 60%: pest or weed control at 200 ppm [1] | pest or weed control at 200 ppm [2] | pest or weed control at 200 ppm [3] | pest or weed control at 200 ppm [4] | inhibition of growth at 200 ppm [5] | inhibition of growth at 20 ppm [6]

CON=CC(C)(C)NC(=O)C(Oc1cc(C)c2ncc(Br)cc2c1)SC (stereo not shown) [Compound No. 26, 2-(3-Bromo-8-methyl-quinolin-6-yloxy)-N-(2-methoxyimino-1,1-dimethyl-ethyl)-2-methylsulfanyl-acetamide]
≥ 60%: pest or weed control at 200 ppm [2] | pest or weed control at 200 ppm [3] | pest or weed control at 200 ppm [4] | inhibition of growth at 200 ppm [7] | inhibition of growth at 200 ppm [5]

C#CCON=CC(C)(C)NC(=O)C(Oc1cc(C)c2ncc(Br)cc2c1)SC (stereo not shown) [Compound No. 29, 2-(3-Bromo-8-methyl-quinolin-6-yloxy)-N-(1,1-dimethyl-2-prop-2-ynyloxyimino-ethyl)-2-methylsulfanyl-acetamide]
≥ 60%: pest or weed control at 200 ppm [1] | pest or weed control at 200 ppm [2] | pest or weed control at 200 ppm [3] | pest or weed control at 200 ppm [4] | inhibition of growth at 200 ppm [5] | inhibition of growth at 20 ppm [6]

CCON=CC(C)(C)NC(=O)C(Oc1cc(Br)c2ncc(Br)cc2c1)SC (stereo not shown) [Compound No. 33, 2-(3,8-Dibromo-quinolin-6-yloxy)-N-(2-ethoxyimino-1,1-dimethyl-ethyl)-2-methylsulfanyl-acetamide]
≥ 60%: pest or weed control at 200 ppm [1] | pest or weed control at 200 ppm [8] | inhibition of growth at 200 ppm [7]

CCCCON=CCC(C)(C)NC(=O)C(Oc1cc(C)c2ncc(I)cc2c1)SC (stereo not shown) [Compound No. 39, N-(3-Butoxyimino-1,1-dimethyl-propyl)-2-(3-iodo-8-methyl-quinolin-6-yloxy)-2-methylsulfanylacetamide]
≥ 60%: pest or weed control at 200 ppm [8] | inhibition of growth at 200 ppm [7]

C=CCON=CCC(C)(C)NC(=O)C(Oc1cc(C)c2ncc(I)cc2c1)SC (stereo not shown) [Compound No. 40, N-(3-Allyloxyimino-1,1-dimethyl-propyl)-2-(3-iodo-8-methyl-quinolin-6-yloxy)-2-methylsulfanyl-acetamide]
≥ 60%: pest or weed control at 200 ppm [1] | pest or weed control at 200 ppm [8] | inhibition of growth at 200 ppm [7]

CON=CCC(C)NC(=O)C(Oc1ccc2ncc(I)cc2c1)SC (stereo not shown) [Compound No. 48, 2-(3-Iodo-quinolin-6-yloxy)-N-(3-methoxyimino-1-methyl-propyl)-2-methylsulfanyl-acetamide]
≥ 60%: pest or weed control at 200 ppm [3] | pest or weed control at 200 ppm [4] | inhibition of growth at 200 ppm [7] | inhibition of growth at 200 ppm [5]

CON=CC(C)(C)NC(=O)C(Oc1cc(Cl)c2sccc2c1)SC (stereo not shown) [Compound No. 83, 2-(7-Chloro-benzo[b]thiophen-5-yloxy)-N-(2-methoxyimino-1,1-dimethyl-ethyl)-2-methylsulfanyl-acetamide]
≥ 60%: pest or weed control at 200 ppm [1] | pest or weed control at 200 ppm [8] | inhibition of growth at 200 ppm [7]

CON=CC(C)(C)NC(=O)C(Oc1cc(C)c2sccc2c1)SC (stereo not shown) [Compound No. 84, N-(2-methoxyimino-1,1-dimethyl-ethyl)-2-(7-methyl-benzo[b]thiophen-5-yloxy)-2-methylsulfanyl-acetamide]
≥ 60%: pest or weed control at 200 ppm [1] | pest or weed control at 200 ppm [8] | inhibition of growth at 200 ppm [7]

CON=CC(C)(C)NC(=O)C(Oc1cc(Cl)c2ncc(I)cc2c1)SC (stereo not shown) [Compound No. 106, 2-(8-Chloro-3-iodo-quinolin-6-yloxy)-N-(2-methoxyimino-1,1-dimethyl-ethyl)-2-methylsulfanyl-acetamide]
≥ 60%: pest or weed control at 200 ppm [1] | pest or weed control at 200 ppm [8] | inhibition of growth at 200 ppm [7]

C#Cc1cnc2c(C)cc(OC(SC)C(=O)NC(C)(C)C=NOC)cc2c1 (stereo not shown) [Compound No. 112, 2-(3-Ethynyl-8-methyl-quinolin-6-yloxy)-N-(2-methoxyimino-1,1-dimethyl-ethyl)-2-methylsulfanyl-acetamide]
≥ 60%: pest or weed control at 200 ppm [1] | pest or weed control at 200 ppm [2] | pest or weed control at 200 ppm [4] | inhibition of growth at 200 ppm [5] | inhibition of growth at 20 ppm [6]

C#Cc1cnc2c(C)cc(OC(SC)C(=O)NC(C)(C)C=NOCC)cc2c1 (stereo not shown) [Compound No. 113, N-(2-Ethoxyimino-1,1-dimethyl-ethyl)-2-(3-Ethynyl-8-methyl-quinolin-6-yloxy)-2-methylsulfanyl-acetamide]
≥ 60%: pest or weed control at 200 ppm [1] | pest or weed control at 200 ppm [2] | pest or weed control at 200 ppm [4] | inhibition of growth at 200 ppm [5] | inhibition of growth at 20 ppm [6]

C#Cc1cnc2c(C)cc(OC(SC)C(=O)NC(C)(C)C=NOCC=C)cc2c1 (stereo not shown) [Compound No. 114, N-(2-Allyloxyimino-1,1-dimethyl-ethyl)-2-(3-Ethynyl-8-methyl-quinolin-6-yloxy)-2-methylsulfanyl-acetamide]
≥ 60%: pest or weed control at 200 ppm [1] | pest or weed control at 200 ppm [2] | pest or weed control at 200 ppm [3] | pest or weed control at 200 ppm [4] | inhibition of growth at 200 ppm [5]

C#Cc1cnc2c(Cl)cc(OC(SC)C(=O)NC(C)(C)C=NOC)cc2c1 (stereo not shown) [Compound No. 115, 2-(8-Chloro-3-ethynyl-quinolin-6-yloxy)-N-(2-methoxyimino-1,1-dimethyl-ethyl)-2-methylsulfanyl-acetamide]
≥ 60%: pest or weed control at 200 ppm [1] | pest or weed control at 200 ppm [2] | pest or weed control at 200 ppm [3] | pest or weed control at 200 ppm [4] | inhibition of growth at 200 ppm [5] | inhibition of growth at 20 ppm [6]

CON=C(Cc1ccccc1)C(C)(C)NC(=O)C(Oc1ccc2ncc(Br)cc2c1)SC (stereo not shown) [Compound No. 121, 2-(3-Bromo-quinolin-6-yloxy)-N-{2-[(E or Z)-methoxyimino]-1,1-dimethyl-3-phenyl-propyl}-2-methylsulfanyl-acetamide]
≥ 60%: pest or weed control at 200 ppm [1] | pest or weed control at 200 ppm [8] | inhibition of growth at 200 ppm [7]

CCON=C(Cc1ccccc1)C(C)(C)NC(=O)C(Oc1ccc2ncc(Br)cc2c1)SC (stereo not shown) [Compound No. 122, 2-(3-Bromo-quinolin-6-yloxy)-N-{2-[(E or Z)-ethoxyimino]-1,1-dimethyl-3-phenyl-propyl}-2-methylsulfanyl-acetamide]
≥ 60%: pest or weed control at 200 ppm [1] | pest or weed control at 200 ppm [8] | inhibition of growth at 200 ppm [7]

C=CCON=C(Cc1ccccn1)C(C)(C)NC(=O)C(Oc1ccc2ncc(Br)cc2c1)SC (stereo not shown) [Compound No. 129, N-{2-[(E or Z)-Allyloxyimino]-1,1-dimethyl-3-pyridin-2-yl-propyl}-2-(3-bromo-quinolin-6-yloxy)-2-methylsulfanyl-acetamide]
≥ 60%: pest or weed control at 200 ppm [8] | inhibition of growth at 200 ppm [7]

CSC(Oc1ccc2ncc(I)cc2c1)C(=O)NC(C)(C)C=NO (stereo not shown) [Compound No. 153, N-(2-Hydroxyimino-1,1-dimethyl-ethyl)-2-(3-iodo-quinolin-6-yloxy)-2-methylsulfanyl-acetamide]
≥ 60%: pest or weed control at 200 ppm [1] | pest or weed control at 200 ppm [2] | pest or weed control at 200 ppm [3] | inhibition of growth at 200 ppm [7] | inhibition of growth at 200 ppm [5] | inhibition of growth at 20 ppm [6]
